# Laboratory results from patent EP2951180B1, “2,6,7,8 SUBSTITUTED PURINES AS HDM2 INHIBITORS” (Merck Sharp & Dohme Corp., priority 2013, dated 2014).
# Target: T1, HDM2 (Homo sapiens, UniProt Q00987)
# T1 construct: Thioredoxin (N); made in house; host or cells: E. coli strain BL21(DE3)Rosetta
# Assay: FRET assay (HDM2 inhibition; method not described in this part)
# Format: binding
# Settings: Table 1
# T1 sequence (Q00987 17-125): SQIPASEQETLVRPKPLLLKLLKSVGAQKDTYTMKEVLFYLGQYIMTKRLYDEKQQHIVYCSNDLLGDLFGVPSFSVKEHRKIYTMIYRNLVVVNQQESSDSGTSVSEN
row,Compound,IC50
1,"CC(C)c1cc(-c2nc3nc(C(=O)O)nc(N[C@H](C)C4CCC4)c3n2Cc2ccc(C(F)(F)F)cc2)ncc1F [Example 1.10, (R)-6-((1-cyclobutylethyl)amino)-8-(5-fluoro-4-isopropylpyridin-2-yl)-7-(4-(trifluoromethyl)benzyl)-7H-purine-2-carboxylic acid]",3.96 nM
2,"CC(C)c1ccc(O)c(-c2nc3nc(C(=O)O)nc(N[C@H](C)C4CCC4)c3n2Cc2ccc(C(F)(F)F)cc2)c1 [Example 1.11, (R)-6-((1-cyclobutylethyl)amino)-8-(2-hydroxy-5-isopropylphenyl)-7-(4-(trifluoromethyl)benzyl)-7H-purine-2-carboxylic acid]",50.3 nM
3,"CCOc1ccc(C(C)C)cc1-c1nc2nc(C(=O)O)nc(N[C@H](C)C3CCC3)c2n1Cc1ccc(C(F)(F)F)cc1 [Example 1.12, (R)-6-((1-cyclobutylethyl)amino)-8-(2-ethoxy-5-isopropylphenyl)-7-(4-(trifluoromethyl)benzyl)-7H-purine-2-carboxylic acid]",29.4 nM
4,"CC(C)c1ccnc(-c2nc3nc(C(=O)O)nc(N(C)[C@H](C)C4CCC4)c3n2Cc2ccc(C(F)(F)F)c(F)c2)c1 [Example 1.13, (R)-6-((1-cyclobutylethyl)(methyl)amino)-7-(3-fluoro-4-(trifluoromethyl)benzyl)-8-(4-isopropylpyridin-2-yl)-7H-purine-2-carboxylic acid]",158 nM
5,"C[C@@H](Nc1nc(C(=O)O)nc2nc(-c3ccccn3)n(Cc3ccc(C(F)(F)F)cc3)c12)C1CCC1 [Example 1.16, 6-{[(1R)-1-cyclobutylethyl]amino}-8-pyridin-2-yl-7-[4-(trifluoromethyl)benzyl]-7H-purine-2-carboxylic acid]",25.3 nM
6,"Cc1ccnc(-c2nc3nc(C(=O)O)nc(N[C@H](C)C4CCC4)c3n2Cc2ccc(C(F)(F)F)cc2)c1 [Example 1.17, 6-{[(1R)-1-cyclobutylethyl]amino}-8-(4-methylpyridin-2-yl)-7-[4-(trifluoromethyl)benzyl]-7H-purine-2-carboxylic acid]",12.7 nM
7,Cc1cccnc1-c1nc2nc(C(=O)O)nc(N[C@H](C)C3CCC3)c2n1Cc1ccc(C(F)(F)F)cc1 [Example 1.18],45.7 nM
8,Cc1cccc(-c2nc3nc(C(=O)O)nc(N[C@H](C)C4CCC4)c3n2Cc2ccc(C(F)(F)F)cc2)n1 [Example 1.19],42.5 nM
9,"COc1ccc(-c2nc3nc(C(=O)O)nc(N[C@H](C)C4CCC4)c3n2Cc2ccc(C(F)(F)F)cc2)nc1 [Example 1.20, 6-{[(1R)-1-cyclobutylethyl]amino}-8-(5-methoxypyridin-2-yl)-7-[4-(trifluoromethyl)benzyl]-7H-purine-2-carboxylic acid]",24.1 nM
10,"Cc1ccc(C)c(-c2nc3nc(C(=O)O)nc(N[C@H](C)C4CCC4)c3n2Cc2ccc(C(F)(F)F)cc2)n1 [Example 1.21, 6-{[(1R)-1-cyclobutylethyl]amino}-8-(3,6-dimethylpyridin-2-yl)-7-[4-(trifluoromethyl)benzyl]-7H-purine-2-carboxylic acid]",27 nM
11,CC(C)c1ccnc(-c2nc3nc(C(=O)O)nc(N[C@H](C)C4CCC4)c3n2Cc2ccc(C(F)(F)F)cc2)c1 [Example 1.22],4.22 nM
12,"COc1ccc(C)nc1-c1nc2nc(C(=O)O)nc(N[C@H](C)C3CCC3)c2n1Cc1ccc(C(F)(F)F)cc1 [Example 1.23, 6-{[(1R)-1-cyclobutylethyl]amino}-8-(3-methoxy-6-methylpyridin-2-yl)-7-[4-(trifluoromethyl)benzyl]-7H-purine-2-carboxylic acid]",13.1 nM
13,"C[C@@H](Nc1nc(C(=O)O)nc2nc(-c3ccc(S(C)(=O)=O)cc3)n(Cc3ccc(C(F)(F)F)cc3)c12)C1CCC1 [Example 1.24, 6-{[(1R)-1-cyclobutylethyl]amino}-8-[4-(methylsulfonyl)phenyl]-7-[4-(trifluoromethyl)benzyl] - 7H-purine-2-carboxylic acid]",112 nM
14,"Cc1cc2ncccc2cc1-c1nc2nc(C(=O)O)nc(N[C@H](C)C3CC3)c2n1Cc1ccc(C(F)(F)F)cc1 [Example 1.25, 6-{[(1R)-1-cyclopropylethyl]amino} -8-(7-methylquinolin-6-yl)-7-[4-(trifluoromethyl)benzyl]-7H-purine-2-carboxylic acid]",1070 nM
15,"C[C@@H](Nc1nc(C(=O)O)nc2nc(-c3cc(-c4ccccc4)ccn3)n(Cc3ccc(C(F)(F)F)cc3)c12)C1CCC1 [Example 1.26, 6-{[(1R)-1-cyclobutylethyl]amino}-8-(4-phenylpyridin-2-yl)-7-[4-(trifluoromethyl)benzyl] - 7H-purine-2-carboxylic acid]",12.1 nM
16,"C[C@@H](Nc1nc(C(=O)O)nc2nc(-c3cc(C(C)(C)O)ccn3)n(Cc3ccc(C(F)(F)F)cc3)c12)C1CCC1 [Example 1.27, 6-{[(1R)-1-cyclobutylethyl]amino}-8-[4-(1-hydroxy-1-methylethyl)pyridin-2-yl]-7-[4-(trifluoromethyl)benzyl]-7H-purine-2-carboxylic acid]",9.41 nM

row,Compound,IC50
1,"CC(O)c1ccnc(-c2nc3nc(C(=O)O)nc(N[C@H](C)C4CCC4)c3n2Cc2ccc(C(F)(F)F)cc2)c1 (stereo partly drawn) [Example 1.28, 6-{[(1R)-1-cyclobutylethyl]amino}-8-[4-(1-hydroxyethyl)pyridin-2-yl]-7-[4-(trifluoromethyl)benzyl]-7H-purine-2-carboxylic acid]",12.4 nM
2,"CCc1ccc(O)c(-c2nc3nc(C(=O)O)nc(N[C@H](C)C4CCC4)c3n2Cc2ccc(C(F)(F)F)cc2)c1 [Example 1.29, 6-{[(1R)-1-cyclobutylethyl]amino}-8-(5-ethyl-2-hydroxyphenyl)-7-[4-(trifluoromethyl)benzyl]-7H-purine-2-carboxylic acid]",46.1 nM
3,"COCOc1ccc(C(C)C)cc1-c1nc2nc(C(=O)O)nc(N[C@H](C)C3CCC3)c2n1Cc1ccc(C(F)(F)F)cc1 [Example 1.30, 6-{[(1R)-1-cyclobutylethyl]amino}-8-[2-(methoxymethoxy)-5-(1-methylethyl)phenyl]-7-[4-(trifluoromethyl)benzyl]-7H-purine-2-carboxylic acid]",54.4 nM
4,"CCc1ccc(OC)c(-c2nc3nc(C(=O)O)nc(N[C@H](C)C4CCC4)c3n2Cc2ccc(C(F)(F)F)cc2)c1 [Example 1.31, 6-{[(1R)-1-cyclobutylethyl]amino}-8-(5-ethyl-2-methoxyphenyl)-7-[4-(trifluoromethyl)benzyl]-7H-purine-2-carboxylic acid]",18.7 nM
5,"CCOc1ccc(CC)cc1-c1nc2nc(C(=O)O)nc(N[C@H](C)C3CCC3)c2n1Cc1ccc(C(F)(F)F)cc1 [Example 1.32, 6-{[(1R)-1-cyclobutylethyl]amino}-8-(2-ethoxy-5-ethylphenyl)-7-[4-(trifluoromethyl)benzyl] - 7H-purine-2-carboxylic acid]",23.6 nM
6,"CCOc1ccc(C(F)(F)F)cc1-c1nc2nc(C(=O)O)nc(N[C@H](C)C3CCC3)c2n1Cc1ccc(C(F)(F)F)cc1 [Example 1.33, 6-{[(1R)-1-cyclobutylethyl]amino}-8-[2-ethoxy-5-(trifluoromethyl)phenyl]-7-[4-(trifluoromethyl)benzyl] - 7H-purine-2-carboxylic acid]",19.8 nM
7,"COc1ccc(C(F)(F)F)cc1-c1nc2nc(C(=O)O)nc(N[C@H](C)C3CCC3)c2n1Cc1ccc(C(F)(F)F)cc1 [Example 1.35, 6-{[(1R)-1-cyclobutylethyl]amino}-8-[2-methoxy-5-(trifluoromethyl)phenyl]-7-[4-(trifluoromethyl)benzyl] - 7H-purine-2-carboxylic acid]",27.8 nM
8,"CCc1ccc(OCOC)c(-c2nc3nc(C(=O)O)nc(N[C@H](C)C4CCC4)c3n2Cc2ccc(C(F)(F)F)cc2)c1 [Example 1.36, 6-{[(1R)-1-cyclobutylethyl]amino}-8-[5-ethyl-2-(methoxymethoxy)pheny 1]-7-[4-(trifluoromethyl)benzyl]-7H-purine-2-carboxylic acid]",23.1 nM
9,"C[C@@H](Nc1nc(C(=O)O)nc2nc(-c3cccc(C(N)=O)c3)n(Cc3ccc(C(F)(F)F)cc3)c12)C1CCC1 [Example 1.37, 8-(3-carbamoylphenyl)-6-{[(1R)-1-cyclobutylethyl]amino}-7-[4-(trifluoromethyl)benzyl]-7H-purine-2-carboxylic acid]",49.4 nM
10,"C[C@@H](Nc1nc(C(=O)O)nc2nc(-c3cc(C(F)(F)F)ccc3F)n(Cc3ccc(C(F)(F)F)cc3)c12)C1CCC1 [Example 1.38, 6-{[(1R)-1-cyclobutylethyl]amino}-8-[2-fluoro-5-(trifluoromethyl)phenyl] - 7-[4-(trifluoromethyl)benzyl]-7H-purine-2-carboxylic acid]",27.5 nM
11,"Cc1ccc(N(C)C)cc1-c1nc2nc(C(=O)O)nc(N[C@H](C)C3CCC3)c2n1Cc1ccc(C(F)(F)F)cc1 [Example 1.39, 6-{[(1R)-1-cyclobutylethyl]amino}-8-[5-(dimethylamino)-2-methylphenyl]-7-[4-(trifluoromethyl)benzyl]-7H-purine-2-carboxylic acid]",58.5 nM
12,"CCc1ccc(F)c(-c2nc3nc(C(=O)O)nc(N[C@H](C)C4CCC4)c3n2Cc2ccc(C(F)(F)F)cc2)c1 [Example 1.40, 6-{[(1R)-1-cyclobutylethyl]amino}-8-(5-ethyl-2-fluorophenyl)-7-[4-(trifluoromethyl)benzyl]-7H-purine-2-carboxylic acid]",33.8 nM
13,"COc1ccc(C(C)C)cc1-c1nc2nc(C(=O)O)nc(N[C@H](C)C3CCC3)c2n1Cc1ccc(C(F)(F)F)cc1 [Example 1.41, 6-{[(1R)-1-cyclobutylethyl]amino}-8-[2-methoxy-5-(1-methylethyl)phenyl]-7-[4-(trifluoromethyl)benzyl]-7H-purine-2-carboxylic acid]",27.5 nM
14,"C[C@@H](Nc1nc(C(=O)O)nc2nc(-c3cc(N(C)C)ccc3O)n(Cc3ccc(C(F)(F)F)cc3)c12)C1CCC1 [Example 1.42, 6-{[(1R)-1-cyclobutylethyl]amino}-8-[5-(dimethylamino)-2-hydroxyphenyl]-7-[4-(trifluoromethyl)benzyl]-7H-purine-2-carboxylic acid]",77 nM
15,"CCOc1ccnc(-c2nc3nc(C(=O)O)nc(N[C@H](C)C4CCC4)c3n2Cc2ccc(C(F)(F)F)cc2)c1 [Example 1.43, 6-{[(1R)-1-cyclobutylethyl]amino}-8-(4-ethoxypyridin-2-yl)-7-[4-(trifluoromethyl)benzyl] - 7H-purine-2-carboxylic acid]",11.8 nM
